Measured values as given in article PMC5564600 (Oncotarget, 2017).
Where two headings read alike, the source gives them in different places.

Legend:
Test in all cases: biochemical
Type in all cases: binding
panel of 442 kinases [1] = biological target: T1, panel of 442 kinases (Homo sapiens, UniProt O76039); details: CDKL5; for remaining activity at 1 µM: read-out: % of control at 1 µM
T1 construct: purchased Ambit Biosciences (scanMAXX KINOMEscan)
T1 sequence (O76039 1-960): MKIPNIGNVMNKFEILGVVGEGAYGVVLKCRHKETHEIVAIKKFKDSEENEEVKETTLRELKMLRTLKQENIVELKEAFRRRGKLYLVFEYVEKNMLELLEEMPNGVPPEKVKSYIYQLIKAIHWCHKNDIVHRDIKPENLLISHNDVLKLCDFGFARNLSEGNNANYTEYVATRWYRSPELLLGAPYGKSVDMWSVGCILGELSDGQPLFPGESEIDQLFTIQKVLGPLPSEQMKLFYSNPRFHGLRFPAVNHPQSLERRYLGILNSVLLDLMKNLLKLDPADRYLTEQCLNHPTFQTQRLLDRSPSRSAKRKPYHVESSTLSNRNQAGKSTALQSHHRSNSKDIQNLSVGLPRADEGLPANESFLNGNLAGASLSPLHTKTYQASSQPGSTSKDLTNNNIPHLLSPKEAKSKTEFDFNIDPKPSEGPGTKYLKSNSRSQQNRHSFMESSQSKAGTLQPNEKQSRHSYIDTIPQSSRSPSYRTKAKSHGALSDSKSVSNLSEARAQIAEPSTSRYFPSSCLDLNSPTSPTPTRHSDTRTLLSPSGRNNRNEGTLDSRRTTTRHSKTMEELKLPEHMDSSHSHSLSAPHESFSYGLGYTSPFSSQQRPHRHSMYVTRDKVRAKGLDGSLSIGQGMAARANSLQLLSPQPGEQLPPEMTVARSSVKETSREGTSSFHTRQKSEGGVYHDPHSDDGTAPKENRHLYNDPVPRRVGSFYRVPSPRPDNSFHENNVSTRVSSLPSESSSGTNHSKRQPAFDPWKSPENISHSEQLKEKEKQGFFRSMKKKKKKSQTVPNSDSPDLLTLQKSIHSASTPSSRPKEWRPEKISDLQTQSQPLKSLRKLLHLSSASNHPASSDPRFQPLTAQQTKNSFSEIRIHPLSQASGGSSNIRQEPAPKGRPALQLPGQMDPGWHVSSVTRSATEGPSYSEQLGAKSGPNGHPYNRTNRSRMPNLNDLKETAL

panel of 442 kinases [2] = biological target: T2, panel of 442 kinases (Homo sapiens, UniProt P43405); details: kinase SYK; for remaining activity at 1 µM: read-out: SYK (% of control at 1 µM)
T2 construct: purchased Ambit Biosciences (scanMAXX KINOMEscan)

panel of 442 kinases [3] = biological target: T3, panel of 442 kinases (Homo sapiens, UniProt P08069); details: kinase IGF1R; for remaining activity at 1 µM: read-out: % of control at 1 µM
T3 construct: purchased Ambit Biosciences (scanMAXX KINOMEscan)

panel of 442 kinases [4] = biological target: T4, panel of 442 kinases (Homo sapiens, UniProt P07949, V804M); details: kinase RET(V804M); for remaining activity at 1 µM: read-out: RET(V804M) (% of control at 1 µM)
T4 construct: purchased Ambit Biosciences (scanMAXX KINOMEscan)

panel of 442 kinases [5] = biological target: T5, panel of 442 kinases (Homo sapiens, UniProt P49761); details: CLK3; for remaining activity at 1 µM: read-out: % of control at 1 µM
T5 construct: purchased Ambit Biosciences (scanMAXX KINOMEscan)

panel of 442 kinases [6] = biological target: T6, panel of 442 kinases (Homo sapiens, UniProt P33981); details: kinase TTK; for remaining activity at 1 µM: read-out: TTK (% of control at 1 µM)
T6 construct: purchased Ambit Biosciences (scanMAXX KINOMEscan)
T6 sequence (P33981 1-857): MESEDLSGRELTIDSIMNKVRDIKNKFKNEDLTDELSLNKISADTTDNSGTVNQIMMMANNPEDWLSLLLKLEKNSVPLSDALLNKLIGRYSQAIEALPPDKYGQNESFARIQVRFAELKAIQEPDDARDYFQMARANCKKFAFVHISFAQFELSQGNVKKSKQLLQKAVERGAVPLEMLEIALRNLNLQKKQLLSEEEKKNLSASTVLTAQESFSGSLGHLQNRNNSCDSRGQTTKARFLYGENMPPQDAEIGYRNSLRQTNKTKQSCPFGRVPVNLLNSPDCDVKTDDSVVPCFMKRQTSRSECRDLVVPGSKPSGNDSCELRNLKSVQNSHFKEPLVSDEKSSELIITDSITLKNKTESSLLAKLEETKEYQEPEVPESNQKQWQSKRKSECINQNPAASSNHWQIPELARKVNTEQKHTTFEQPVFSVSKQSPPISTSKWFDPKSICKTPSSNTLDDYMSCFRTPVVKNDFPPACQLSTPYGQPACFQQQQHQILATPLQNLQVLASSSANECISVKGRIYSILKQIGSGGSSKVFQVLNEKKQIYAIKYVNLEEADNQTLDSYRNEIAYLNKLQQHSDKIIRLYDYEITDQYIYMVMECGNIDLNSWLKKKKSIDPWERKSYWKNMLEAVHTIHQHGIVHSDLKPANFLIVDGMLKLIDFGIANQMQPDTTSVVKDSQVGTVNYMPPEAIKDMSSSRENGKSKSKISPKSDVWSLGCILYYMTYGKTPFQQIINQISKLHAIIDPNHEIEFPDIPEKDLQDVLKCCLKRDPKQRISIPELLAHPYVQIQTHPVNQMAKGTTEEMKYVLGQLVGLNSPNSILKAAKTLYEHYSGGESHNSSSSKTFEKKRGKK

panel of 442 kinases [7] = biological target: T7, panel of 442 kinases (Homo sapiens, UniProt P00519); details: for remaining activity at 1 µM: read-out: % of control at 1 µM; for remaining activity at 10 µM: read-out: % of control at 10 µM
T7 construct: purchased Ambit Biosciences (scanMAXX KINOMEscan)

panel of 442 kinases [8] = biological target: T8, panel of 442 kinases (Homo sapiens, UniProt Q5VT25); details: kinase MRCKA; for remaining activity at 1 µM: read-out: % of control at 1 µM
T8 construct: purchased Ambit Biosciences (scanMAXX KINOMEscan)

panel of 442 kinases [9] = biological target: T9, panel of 442 kinases (Homo sapiens, UniProt P04049); details: kinase RAF1; for remaining activity at 1 µM: read-out: RAF1 (% of control at 1 µM)
T9 construct: purchased Ambit Biosciences (scanMAXX KINOMEscan)

panel of 442 kinases [10] = biological target: T10, panel of 442 kinases (Homo sapiens, UniProt Q9NQU5); details: kinase PAK6; for remaining activity at 1 µM: read-out: % of control at 1 µM
T10 construct: purchased Ambit Biosciences (scanMAXX KINOMEscan)

panel of 442 kinases [11] = biological target: T11, panel of 442 kinases (Homo sapiens, UniProt Q7KZI7); details: kinase MARK2; for remaining activity at 1 µM: read-out: % of control at 1 µM
T11 construct: purchased Ambit Biosciences (scanMAXX KINOMEscan)

panel of 442 kinases [12] = biological target: T12, panel of 442 kinases (Homo sapiens, UniProt P08581, M1250T); details: kinase MET(M1250T); for remaining activity at 1 µM: read-out: % of control at 1 µM
T12 construct: purchased Ambit Biosciences (scanMAXX KINOMEscan)

[13] = 10 µM, read-out: % of control at 10 µM

T11 sequence (Q7KZI7 whole entry): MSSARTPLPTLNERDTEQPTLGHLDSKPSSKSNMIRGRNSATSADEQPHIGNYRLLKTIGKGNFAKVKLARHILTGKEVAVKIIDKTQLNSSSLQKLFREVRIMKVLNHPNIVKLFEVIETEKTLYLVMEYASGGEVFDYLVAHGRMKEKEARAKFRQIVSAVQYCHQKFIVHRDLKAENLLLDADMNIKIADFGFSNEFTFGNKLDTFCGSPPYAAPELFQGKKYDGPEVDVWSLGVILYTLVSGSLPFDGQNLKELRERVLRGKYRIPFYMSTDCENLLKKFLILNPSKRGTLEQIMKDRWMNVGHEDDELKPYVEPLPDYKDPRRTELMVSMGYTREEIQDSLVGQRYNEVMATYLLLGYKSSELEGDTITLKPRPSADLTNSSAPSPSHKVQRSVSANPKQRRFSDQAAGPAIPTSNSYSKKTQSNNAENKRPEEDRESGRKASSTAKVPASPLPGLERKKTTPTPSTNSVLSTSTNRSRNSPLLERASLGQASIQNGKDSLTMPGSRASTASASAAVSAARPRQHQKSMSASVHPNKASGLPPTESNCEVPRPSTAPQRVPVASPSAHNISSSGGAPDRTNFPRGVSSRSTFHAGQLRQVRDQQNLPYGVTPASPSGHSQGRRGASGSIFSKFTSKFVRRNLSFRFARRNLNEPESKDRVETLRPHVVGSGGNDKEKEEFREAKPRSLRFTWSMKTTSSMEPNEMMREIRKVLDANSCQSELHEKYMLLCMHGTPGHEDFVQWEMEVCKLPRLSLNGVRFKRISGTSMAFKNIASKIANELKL
T10 sequence (Q9NQU5 whole entry): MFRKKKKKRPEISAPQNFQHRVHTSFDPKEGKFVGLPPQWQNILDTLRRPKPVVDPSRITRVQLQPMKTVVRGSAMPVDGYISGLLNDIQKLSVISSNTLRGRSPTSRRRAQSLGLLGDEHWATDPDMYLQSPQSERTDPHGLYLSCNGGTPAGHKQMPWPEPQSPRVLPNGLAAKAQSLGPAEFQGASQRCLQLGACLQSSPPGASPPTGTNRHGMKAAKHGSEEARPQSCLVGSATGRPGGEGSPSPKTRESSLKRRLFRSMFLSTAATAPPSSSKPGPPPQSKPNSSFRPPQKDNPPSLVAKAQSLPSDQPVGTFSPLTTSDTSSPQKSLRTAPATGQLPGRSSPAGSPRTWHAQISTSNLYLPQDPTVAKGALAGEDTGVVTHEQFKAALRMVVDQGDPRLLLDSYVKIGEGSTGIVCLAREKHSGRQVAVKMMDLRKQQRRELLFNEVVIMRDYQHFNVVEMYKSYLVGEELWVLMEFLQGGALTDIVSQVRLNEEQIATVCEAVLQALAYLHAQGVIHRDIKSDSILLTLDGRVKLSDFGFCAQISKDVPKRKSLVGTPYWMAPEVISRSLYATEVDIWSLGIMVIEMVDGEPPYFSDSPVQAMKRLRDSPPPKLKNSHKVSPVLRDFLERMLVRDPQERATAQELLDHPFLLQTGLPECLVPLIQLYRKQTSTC
T3 sequence (P08069 31-1367): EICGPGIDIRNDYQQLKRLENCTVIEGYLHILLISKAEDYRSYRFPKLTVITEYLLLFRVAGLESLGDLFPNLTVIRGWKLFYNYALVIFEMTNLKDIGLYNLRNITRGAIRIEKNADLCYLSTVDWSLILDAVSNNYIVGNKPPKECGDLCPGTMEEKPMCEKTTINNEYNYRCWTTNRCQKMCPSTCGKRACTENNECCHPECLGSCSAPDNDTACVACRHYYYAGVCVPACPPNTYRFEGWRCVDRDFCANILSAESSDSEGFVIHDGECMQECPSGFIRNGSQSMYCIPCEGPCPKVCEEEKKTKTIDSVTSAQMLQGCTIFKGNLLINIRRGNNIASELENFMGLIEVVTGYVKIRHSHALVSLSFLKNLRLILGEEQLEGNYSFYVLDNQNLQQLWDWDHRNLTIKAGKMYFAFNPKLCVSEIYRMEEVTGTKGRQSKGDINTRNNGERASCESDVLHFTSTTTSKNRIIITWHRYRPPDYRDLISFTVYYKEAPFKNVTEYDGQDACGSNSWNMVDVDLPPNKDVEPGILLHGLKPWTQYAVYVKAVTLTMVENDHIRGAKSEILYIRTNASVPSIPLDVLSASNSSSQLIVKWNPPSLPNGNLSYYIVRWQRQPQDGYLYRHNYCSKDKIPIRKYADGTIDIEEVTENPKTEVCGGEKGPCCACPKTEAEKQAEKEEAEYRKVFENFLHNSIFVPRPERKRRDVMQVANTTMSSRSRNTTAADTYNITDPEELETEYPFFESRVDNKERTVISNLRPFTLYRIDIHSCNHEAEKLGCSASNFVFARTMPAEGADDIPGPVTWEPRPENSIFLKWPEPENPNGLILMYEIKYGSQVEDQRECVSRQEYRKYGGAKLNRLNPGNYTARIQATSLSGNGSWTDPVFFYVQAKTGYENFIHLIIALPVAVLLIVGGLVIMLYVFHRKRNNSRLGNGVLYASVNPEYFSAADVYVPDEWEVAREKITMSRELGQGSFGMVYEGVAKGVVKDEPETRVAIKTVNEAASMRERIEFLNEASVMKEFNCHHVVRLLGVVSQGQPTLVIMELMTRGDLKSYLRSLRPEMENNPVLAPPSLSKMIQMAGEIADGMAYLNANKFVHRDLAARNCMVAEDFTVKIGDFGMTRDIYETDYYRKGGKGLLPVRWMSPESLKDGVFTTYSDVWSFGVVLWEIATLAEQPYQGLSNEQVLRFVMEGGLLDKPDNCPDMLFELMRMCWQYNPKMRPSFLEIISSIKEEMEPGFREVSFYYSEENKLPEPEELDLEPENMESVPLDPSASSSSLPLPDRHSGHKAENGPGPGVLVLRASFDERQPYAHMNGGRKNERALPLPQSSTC
T8 sequence (Q5VT25 whole entry): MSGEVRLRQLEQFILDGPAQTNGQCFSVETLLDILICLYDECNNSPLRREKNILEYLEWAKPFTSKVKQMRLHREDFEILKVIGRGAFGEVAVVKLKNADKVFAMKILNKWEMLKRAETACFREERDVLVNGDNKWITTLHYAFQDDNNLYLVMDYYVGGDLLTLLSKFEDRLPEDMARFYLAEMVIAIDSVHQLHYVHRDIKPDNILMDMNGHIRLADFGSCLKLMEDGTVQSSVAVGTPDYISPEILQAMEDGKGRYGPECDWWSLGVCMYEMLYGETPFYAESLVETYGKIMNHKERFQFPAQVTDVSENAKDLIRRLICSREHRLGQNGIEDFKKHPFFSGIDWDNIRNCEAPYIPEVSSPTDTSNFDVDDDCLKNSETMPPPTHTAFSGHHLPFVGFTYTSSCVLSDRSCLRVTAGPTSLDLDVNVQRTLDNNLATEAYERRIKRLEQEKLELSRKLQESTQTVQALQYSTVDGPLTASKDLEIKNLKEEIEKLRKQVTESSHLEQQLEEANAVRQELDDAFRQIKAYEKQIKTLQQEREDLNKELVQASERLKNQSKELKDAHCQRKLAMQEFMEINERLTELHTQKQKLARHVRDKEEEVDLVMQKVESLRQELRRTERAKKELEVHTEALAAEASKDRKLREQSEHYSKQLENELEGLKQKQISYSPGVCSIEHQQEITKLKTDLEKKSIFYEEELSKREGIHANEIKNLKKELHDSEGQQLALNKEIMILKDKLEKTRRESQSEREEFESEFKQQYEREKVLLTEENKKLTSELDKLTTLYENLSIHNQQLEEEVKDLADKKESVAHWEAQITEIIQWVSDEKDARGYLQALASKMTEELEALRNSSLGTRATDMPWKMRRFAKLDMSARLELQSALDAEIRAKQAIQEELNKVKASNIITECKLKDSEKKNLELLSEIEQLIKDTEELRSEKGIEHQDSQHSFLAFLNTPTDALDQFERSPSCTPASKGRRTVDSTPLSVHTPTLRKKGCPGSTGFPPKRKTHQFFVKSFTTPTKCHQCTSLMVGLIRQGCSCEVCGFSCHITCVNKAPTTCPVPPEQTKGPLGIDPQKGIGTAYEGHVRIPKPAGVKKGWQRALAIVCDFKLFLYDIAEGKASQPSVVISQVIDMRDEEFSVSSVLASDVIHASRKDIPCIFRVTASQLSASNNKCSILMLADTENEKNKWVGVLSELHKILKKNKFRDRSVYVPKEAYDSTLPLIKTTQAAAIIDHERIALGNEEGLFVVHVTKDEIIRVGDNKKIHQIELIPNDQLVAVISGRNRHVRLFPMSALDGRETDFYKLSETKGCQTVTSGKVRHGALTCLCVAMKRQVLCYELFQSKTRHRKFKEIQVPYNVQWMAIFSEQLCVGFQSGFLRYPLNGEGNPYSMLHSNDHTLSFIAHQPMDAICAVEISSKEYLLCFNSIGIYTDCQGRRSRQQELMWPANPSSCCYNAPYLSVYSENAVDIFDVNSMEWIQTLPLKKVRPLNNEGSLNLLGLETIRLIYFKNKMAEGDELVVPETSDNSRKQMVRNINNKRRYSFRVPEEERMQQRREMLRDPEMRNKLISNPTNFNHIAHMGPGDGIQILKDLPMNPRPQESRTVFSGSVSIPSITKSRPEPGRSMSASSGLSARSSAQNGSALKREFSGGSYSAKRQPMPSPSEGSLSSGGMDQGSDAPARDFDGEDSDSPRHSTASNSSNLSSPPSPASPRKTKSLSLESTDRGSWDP
T5 sequence (P49761 whole entry): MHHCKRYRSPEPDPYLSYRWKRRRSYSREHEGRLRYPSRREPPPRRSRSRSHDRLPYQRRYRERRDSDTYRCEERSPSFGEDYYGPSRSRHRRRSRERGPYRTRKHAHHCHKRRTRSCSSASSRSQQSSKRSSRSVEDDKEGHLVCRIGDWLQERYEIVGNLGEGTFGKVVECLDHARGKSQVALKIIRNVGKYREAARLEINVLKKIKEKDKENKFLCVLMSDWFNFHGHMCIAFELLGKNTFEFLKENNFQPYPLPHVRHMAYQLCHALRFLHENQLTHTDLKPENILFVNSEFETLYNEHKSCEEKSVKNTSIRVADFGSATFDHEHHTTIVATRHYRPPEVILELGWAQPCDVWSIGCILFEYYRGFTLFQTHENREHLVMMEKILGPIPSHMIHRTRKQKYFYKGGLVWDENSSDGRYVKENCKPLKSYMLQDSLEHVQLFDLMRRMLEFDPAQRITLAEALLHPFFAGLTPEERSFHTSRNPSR

SMILES | remaining activity at 1 µM (panel of 442 kinases [1]) | remaining activity at 1 µM (panel of 442 kinases [2]) | remaining activity at 1 µM (panel of 442 kinases [3]) | remaining activity at 1 µM (panel of 442 kinases [4]) | remaining activity at 1 µM (panel of 442 kinases [5]) | remaining activity at 1 µM (panel of 442 kinases [6]) | remaining activity at 1 µM (panel of 442 kinases [7]; ABL1-nonphosphorylated) | remaining activity at 1 µM (panel of 442 kinases [7]; ABL1-phosphorylated) | remaining activity at 1 µM (panel of 442 kinases [8]) | remaining activity at 1 µM (panel of 442 kinases [9]) | remaining activity at 1 µM (panel of 442 kinases [10]) | remaining activity at 1 µM (panel of 442 kinases [11]) | remaining activity at 1 µM (panel of 442 kinases [12]) | further results
Nc1cc(C(F)(F)F)c(-c2cc(N3CCOCC3)nc(N3CCOCC3)n2)cn1 [Buparlisib] | 88% | 98% | 100% | 97% | 100% | 100% | 100% | 86% | 80% | 100% | 96% | 100% | 92% | remaining activity at 10 µM (panel of 442 kinases [1]; [13]): 100%; remaining activity at 10 µM (panel of 442 kinases [2]; 10 µM, read-out: SYK (% of control at 10 µM)): 100%; remaining activity at 10 µM (panel of 442 kinases [3]; [13]): 100%; remaining activity at 10 µM (panel of 442 kinases [4]; 10 µM, read-out: RET(V804M) (% of control at 10 µM)): 100%; remaining activity at 10 µM (panel of 442 kinases [5]; [13]): 94%; remaining activity at 10 µM (panel of 442 kinases [6]; 10 µM, read-out: TTK (% of control at 10 µM)): 85%; remaining activity at 10 µM (panel of 442 kinases [7]; ABL1-nonphosphorylated): 100%; remaining activity at 10 µM (panel of 442 kinases [7]; ABL1-phosphorylated): 100%; remaining activity at 10 µM (panel of 442 kinases [8]; [13]): 100%; remaining activity at 10 µM (panel of 442 kinases [9]; 10 µM, read-out: RAF1 (% of control at 10 µM)): 100%; remaining activity at 10 µM (panel of 442 kinases [10]; [13]): 100%; remaining activity at 10 µM (panel of 442 kinases [11]; [13]): 71%; remaining activity at 10 µM (panel of 442 kinases [12]; [13]): 100%
Cn1c(=O)n(-c2ccc(C(C)(C)C#N)cc2)c2c3cc(-c4cnc5ccccc5c4)ccc3ncc21 [Dactolisib, 2-methyl-2-[4-(3-methyl-2-oxo-8-quinolin-3-yl-2,3-dihydroimidazo[4,5-c]quinolin-1-yl)-phenyl] propionitrile] | 100% | 100% | 95% |  | 50% | 49% | 100% | 81% | 83% | 94% | 92% | 65% |  | 
COc1ncc(-c2ccc3nccc(-c4ccnnc4)c3c2)cc1NS(=O)(=O)c1ccc(F)cc1F [Omipalisib] | 100% | 100% | 100% | 90% | 93% | 76% | 100% | 98% | 97% | 100% | 100% | 100% | 80% | 
FC(F)c1nc2ccccc2n1-c1nc(N2CCOCC2)nc(N2CCOCC2)n1 [ZSTK474, 2-(difluoromethyl)-1-[4,6-di(4-morpholinyl)-1,3,5-triazin-2-yl]-1H-benzimidazole] | 100% | 100% | 100% | 100% | 100% | 100% | 100% | 100% | 83% | 73% | 100% | 57% | 99% | 
